Measured values as given in paper PMC7053711, “A G protein–coupled receptor mediates neuropeptide-induced oocyte maturation in the jellyfish Clytia” (PLoS Biology, 2020).
Peptide text beside a SMILES is read from it.

Key:
Clytia MIHR = test: GPCR deorphanization assay, luminescence response to peptides at 1 μM (CHO-K1 cells, Gα-16, GFP-apoaequorin); assay type: cell-based, Clytia hemisphaerica; conditions: peptide 1E-6M, normalised to Platynereis FLamide receptor + 1 μM AKYFL-NH2, n = 3
Description: We used a cell culture–based GPCR deorphanization assay to identify the MIH receptor from our candidate shortlist. cDNAs for each candidate were transfected into Chinese Hamster ovary K1 (CHO-K1) cells along with the promiscuous Gα protein Gα-16, and an aequorin-GFP luminescence reporter that measures Ca^2+ mobilization downstream of this heterologous Gα protein [27, 28]. We first screened the 16 candidate Clytia GPCRs against a mixture of 33 synthetic amidated peptides (including MIHs) predicted to be generated from previously identified putative Clytia neuropeptide precursors and one additional one identified from transcriptome data. Given our imperfect knowledge of pro-peptide processing in cnidarians, some of the synthetic peptides may not correspond to endogenous peptides. Only one of the 16 GPCRs was activated by this peptide mixture. This receptor responded well to all 4 synthetic Clytia MIH tetrapeptides, as well as to related Cladonema MIH peptides that can also activate Clytia oocyte maturation, but not to other Clytia peptide mixtures or poorly active MIH penta-/tripeptides. We termed this Clytia GPCR the Maturation Inducing Hormone Receptor (MIHR). The activity of individual peptides at 1 μM to stimulate the MIHR closely matched their in vivo ability to induce oocyte maturation (Fig 1B).
Cell culture GPCR ligand response assays were performed as described. Briefly, CHO-K1 cells were cultured in Ham’s F12 Nut Mix medium (Thermo Fisher Scientific) with 10% foetal bovine serum. Cells were seeded in 96-well plates at approximately 10,000 cells/well and transfected the following day with pcDNA3.1(+) plasmids encoding each of the 16 candidate Clytia GPCRs (S2 Text), the promiscuous Gα-16 protein [65], and a reporter construct GFP-apoaequorin [66] (60 ng each) using the transfection reagent TurboFect (Thermo Fisher Scientific). After 2 days of expression, the medium was removed and replaced with Hank’s balanced salt solution (HBSS) supplemented with 1.8 mM Ca2+, 10 mM glucose, and […] coelenterazine h (Promega, Madison, WI). After incubation at 37 °C for 2 hours, cells were tested by adding synthetic peptides (GenScript) in HBSS supplemented with 1.8 mM Ca2^+ and 10 mM glucose. A list of all synthetic peptides used is provided in S2 Table. Luminescence was recorded for 45 seconds in a plate reader (BioTek Synergy Mx or Synergy H4; BioTek, Winooski, VT). Data were integrated over the 45-second measurement period and recorded as technical triplicates in each case. Data were normalized using the response of Platynereis FLamide receptor to 1 μM AKYFL-NH2 [28]. Dose–response curves were obtained using concentrations between 0.01 nM and 100 μM for each peptide. Data for dose–response curves were recorded in triplicate for each concentration and the experiment was repeated independently 3 times. Dose–response curves were fitted with a four-parameter curve using Prism 6 (GraphPad, La Jolla, CA) and were normalized to the calculated upper plateau values (100% activation).
Supplementary file pbio.3000614.s011.xlsx: S1 Data Numerical data corresponding to Fig 1B. Raw luminescence values obtained in triplicate for each of the neuropeptide combinations tested against the MIHR in the deorphanization assay are provided. In the right-hand table, the raw luminescence values obtained in quadruple for the positive and negative controls are provided. In the lower table, means and standard errors of the mean of the luminescence values obtained for each neuropeptide combination and controls are also shown, as well as the values normalized to the positive control, which were used to prepare the graph shown in Fig 1B. MIHR, MIH receptor. (XLSX) Click here for additional data file.

[1] = tested on: wild-type (WT) isolated female gonads; test: Gonad spawning assay, wild-type isolated gonads; set-up: species or system Clytia hemisphaerica
Experimental: We performed a series of oocyte maturation and spawning assays, comparing the responses of wild-type and MIHR mutant isolated gonads and oocytes to different stimuli (Fig 4).
Sexually mature MIHR mutant medusae from colonies n5-13 and n5-23 and wild-type medusae were cultured on the same day–night cycle. Individual gonads were dissected in the evening after afternoon spawning. To test the light response, one group of each was transferred to 100 μL MFSW in wells of 96-well plastic plates, covered overnight, and re-exposed to white light the following day. To test responses to MIH and cAMP, other groups of dissected gonads were cultured overnight in constant light, then transferred to 96-well plastic plates for two hours. MIH was added to wells as an equal volume of 200 nM WPRPamide (GenScript) stock in MFSW was added to give a final concentration of 100 nM. Alternatively, a stock of 20 mM bromo adenosine 3′,5′cyclic monophosphate (Br-cAMP–Fluka; Sigma Aldrich) in distilled water was added to give a final concentration of 4 mM. Gonads were washed after 5 minutes incubation in Br-cAMP. Oocyte maturation was scored after 30 minutes as germinal vesicle breakdown (GVBD), i.e., visible dissolution of the oocyte nuclear membrane upon entry into M phase, which in all cases was followed by spawning about 1 hour later.
Supplementary file pbio.3000614.s013.xlsx: S3 Data Numerical data corresponding to Fig 4A and 4C. The first tab collects all the raw data from 3 independent gonad spawning assays. Information corresponding to the Fisher exact tests is also shown. […] The means and standard deviations were used to prepare the graph in Fig 4C. Information corresponding to the Fisher exact tests is also shown. (XLSX) Click here for additional data file.

[2] = 0,1uM WPRPa, wild type, replicate 1, total 22
[3] = 0,1uM WPRPa, wild type, replicate 2, total 24
[4] = 0,1uM WPRPa, wild type, replicate 3, total 18
[5] = WPRPa, pooled n=64, Fisher exact test vs MIHR KO significant at p < .01

N=C(N)NCCC[C@H](NC(=O)[C@@H]1CCCN1C(=O)[C@@H](N)Cc1c[nH]c2ccccc12)C(=O)N1CCC[C@H]1C(N)=O [WPRPa] (H-WPRP-NH2; N-terminus assumed)
Normalised response (to positive control), mean (Clytia MIHR): 0.381
Percentage of spawning gonads, Mean ([1]; 0,1uM WPRPa, wild type, mean of 3 replicates, Desvest 7.87296): 95.4545
Gonads spawning (number) [1, 2]: 19
Percentage of spawning gonads [1, 2]: 86.3636
Gonads spawning (number) [1, 3]: 24
Percentage of spawning gonads [1, 3]: 100
Gonads spawning (number) [1, 4]: 18
Percentage of spawning gonads [1, 4]: 100
Non-spawning gonads, WT NO [1, 5]: 3
Spawning gonads, WT YES [1, 5]: 61
oocyte maturation and spawning of WT gonads ([1]; isolated WT gonads, 100 nM WPRPamide): underwent oocyte maturation and spawning
